According to patent US20240083886A1, “HETEROCYCLIC GLP-1 AGONISTS” (Gasherbrum Bio, Inc., priority 2020, published 2024):

target: GLP-1 Receptor (Homo sapiens, UniProt P43220); assay: GLP-1R agonist cAMP stimulation assay; format: cell-based; conditions: not given
Procedure, shortened: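 HEK293/CRE-Luc cells stably expressing GLP-1R, 1000 cells/well in DPBS with 0.5 mM IBMX and 0.1% BSA, exposed to ½-log compound dilutions 30 min at 37 °C. cAMP measured by HTRF (665/615 nm) after 1 h at room temperature. % activity normalised between vehicle and MAX controls.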

Sequence of GLP-1 Receptor (P43220 24-463, species assumed): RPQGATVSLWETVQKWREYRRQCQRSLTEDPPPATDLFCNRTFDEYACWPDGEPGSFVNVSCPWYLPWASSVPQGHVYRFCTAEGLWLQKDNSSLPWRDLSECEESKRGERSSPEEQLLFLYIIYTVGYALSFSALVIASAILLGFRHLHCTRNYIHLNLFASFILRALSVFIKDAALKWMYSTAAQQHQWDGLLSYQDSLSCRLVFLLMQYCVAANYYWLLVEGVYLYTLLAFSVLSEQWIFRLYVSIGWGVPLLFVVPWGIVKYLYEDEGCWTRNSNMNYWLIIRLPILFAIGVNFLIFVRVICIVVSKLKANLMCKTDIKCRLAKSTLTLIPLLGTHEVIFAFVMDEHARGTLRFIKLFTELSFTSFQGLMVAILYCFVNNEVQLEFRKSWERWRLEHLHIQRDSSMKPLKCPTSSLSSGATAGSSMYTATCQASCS

EC50 [nM]	SMILES
1.8	Cc1cc(-c2ccc3c(c2)nc(CN2CCC(Oc4ccnc(Cc5ccc(Cl)cc5)n4)CC2)n3C[C@@H]2CCO2)[nH]n1 [Compound 131a, 2-{[4-({2-[(4-chlorophenyl)methyl]pyrimidin-4-yl}oxy)piperidin-1-yl]methyl}-5-(3-methyl-1H-pyrazol-5-yl)-1-{[(2S)-oxetan-2-yl]methyl}-1H-1,3-benzodiazole]
7.6	Cc1ncc(-c2ccc3c(c2)nc(CN2CCC(Oc4ccnc(Cc5ccc(Cl)cc5)n4)CC2)n3C[C@@H]2CCO2)s1 [Compound 129a, 2-{[4-({2-[(4-chlorophenyl)methyl]pyrimidin-4-yl}oxy)piperidin-1-yl]methyl}-5-(2-methyl-1,3-thiazol-5-yl)-1-{[(2S)-oxetan-2-yl]methyl}-1H-1,3-benzodiazole]
2.9	Cc1nnc(-c2cnc3c(c2)nc(CN2CCC(Oc4nc(Cc5ccc(Cl)cc5)ncc4F)CC2)n3C[C@@H]2CCO2)[nH]1 [Compound 162a, 2-[(4-chlorophenyl)methyl]-5-fluoro-4-[(1-{[6-(5-methyl-4H-1,2,4-triazol-3-yl)-3-{[(2S)-oxetan-2-yl]methyl}-3H-imidazo[4,5-b]pyridin-2-yl]methyl}piperidin-4-yl)oxy]pyrimidine]
1.5	Fc1cc(Cl)ccc1Cc1ncc(F)c(OC2CCN(Cc3nc4cc(-c5nnc[nH]5)ncc4n3C[C@@H]3CCO3)CC2)n1 [Compound 169a, 2-[(4-chloro-2-fluorophenyl)methyl]-5-fluoro-4-({1-[(3-{[(2S)-oxetan-2-yl]methyl}-6-(4H-1,2,4-triazol-3-yl)-3H-imidazo[4,5-c]pyridin-2-yl)methyl]piperidin-4-yl}oxy)pyrimidine]
5.7	CCOCCn1c(CN2CCC(Oc3ccnc(Cc4ccc(Cl)cc4)n3)CC2)nc2cc(-c3nnc(C(F)(F)F)[nH]3)cnc21 [Compound 123, 2-[(4-chlorophenyl)methyl]-4-[(1-{[3-(2-ethoxyethyl)-6-[5-(trifluoromethyl)-4H-1,2,4-triazol-3-yl]-3H-imidazo[4,5-b]pyridin-2-yl]methyl}piperidin-4-yl)oxy]pyrimidine]
1.8	Fc1cc(Cl)ccc1Cc1nccc(OC2CCN(Cc3nc4cc(-c5nnc[nH]5)ncc4n3C[C@@H]3CCO3)CC2)n1 [Compound 166a, 2-[(4-chloro-2-fluorophenyl)methyl]-4-({1-[(3-{[(2S)-oxetan-2-yl]methyl}-6-(4H-1,2,4-triazol-3-yl)-3H-imidazo[4,5-c]pyridin-2-yl)methyl]piperidin-4-yl}oxy)pyrimidine]
0.59	Cc1ccc(-c2ccc3c(c2)nc(CN2CCC(Oc4ccnc(Cc5ccc(Cl)cc5)n4)CC2)n3C[C@@H]2CCO2)nn1 [Compound 124a, 2-{[4-({2-[(4-chlorophenyl)methyl]pyrimidin-4-yl}oxy)piperidin-1-yl]methyl}-5-(6-methylpyridazin-3-yl)-1-{[(2S)-oxetan-2-yl]methyl}-1H-1,3-benzodiazole]

same assay, conditions: HEK293/GLP1R/CRE-LUC cells, cAMP dynamic 2 Kit (Cisbio), 30 min incubation at 37° C.; read-out: EC50

EC50 [nM]	SMILES
1.8	O=c1[nH]c(-c2ccc3c(c2)nc(C[C@H]2CC[C@H](Oc4nc(Cc5ccc(Cl)cc5)ncc4F)CC2)n3C[C@@H]2CCO2)no1 [Compound 172a, 3-(1-{[(2S)-oxetan-2-yl]methyl}-2-{[(1r,4r)-4-({2-[(4-chlorophenyl)methyl]-5-fluoropyrimidin-4-yl}oxy)cyclohexyl]methyl}-1H-1,3-benzodiazol-5-yl)-4,5-dihydro-1,2,4-oxadiazol-5-one]
0.18	Clc1ccc(Cc2nccc(OC3CCN(Cc4nc5cc(-c6nnn[nH]6)ccc5n4Cc4cn[nH]c4)CC3)n2)cc1 [Compound 153, 2-{[4-({2-[(4-chlorophenyl)methyl]pyrimidin-4-yl}oxy)piperidin-1-yl]methyl}-1-[(1H-pyrazol-4-yl)methyl]-5-(1H-1,2,3,4-tetrazol-5-yl)-1H-1,3-benzodiazole]
0.49	N#CC1(Cn2c(CN3CCC(Oc4cccc(Cc5ccc(Cl)cc5F)n4)CC3)nc3cc(-c4nnc(C(F)(F)F)[nH]4)ncc32)CC1 [Compound 179, 1-[(2-{[4-({6-[(4-chloro-2-fluorophenyl)methyl]pyridin-2-yl}oxy)piperidin-1-yl]methyl}-6-[5-(trifluoromethyl)-4H-1,2,4-triazol-3-yl]-3H-imidazo[4,5-c]pyridin-3-yl)methyl]cyclopropane-1-carbonitrile]
16	O=C(O)c1ccc2c(c1)nc(CN1CCC(Oc3cccc(Cc4ccc(Cl)cc4F)n3)CC1)n2C[C@@H]1CCO1 [Compound 188a, 2-{[4-({6-[(4-chloro-2-fluorophenyl)methyl]pyridin-2-yl}oxy)piperidin-1-yl]methyl}-1-{[(2S)-oxetan-2-yl]methyl}-1H-1,3-benzodiazole-5-carboxylic acid]
0.093	Cc1ncccc1C(=O)Nc1ccc2c(c1)nc(CN1CCC(Oc3ccnc(Cc4ccc(Cl)cc4)n3)CC1)n2C[C@@H]1CCO1 [Compound 103a, N-(2-{[4-({2-[(4-chlorophenyl)methyl]pyrimidin-4-yl}oxy)piperidin-1-yl]methyl}-1-{[(2S)-oxetan-2-yl]methyl}-1H-1,3-benzodiazol-5-yl)-2-methylpyridine-3-carboxamide]
0.81	Fc1cnc(Cc2ccc(Cl)cc2)nc1O[C@H]1CC[C@H](Cc2nc3cc(-c4nnc(C(F)(F)F)[nH]4)ccc3n2C[C@@H]2CCO2)CC1 [Compound 173a, 1-{[(2S)-oxetan-2-yl]methyl}-2-{[(1r,4r)-4-({2-[(4-chlorophenyl)methyl]-5-fluoropyrimidin-4-yl}oxy)cyclohexyl]methyl}-5-[5-(trifluoromethyl)-4H-1,2,4-triazol-3-yl]-1H-1,3-benzodiazole]
5.9	O=C(Nc1ccc2c(c1)nc(CN1CCC(Oc3ccnc(Cc4ccc(Cl)cc4F)n3)CC1)n2C[C@@H]1CCO1)c1ccc(C2CC2)nc1 [Compound 117a, N-(2-{[4-({2-[(4-chloro-2-fluorophenyl)methyl]pyrimidin-4-yl}oxy)piperidin-1-yl]methyl}-1-{[(2S)-oxetan-2-yl]methyl}-1H-1,3-benzodiazol-5-yl)-6-cyclopropylpyridine-3-carboxamide]
1.8	O=c1[nH]c(-c2cnc3c(c2)nc(CN2CCC(Oc4ccnc(Cc5ccc(Cl)cc5)n4)CC2)n3C[C@@H]2CCO2)no1 [Compound 144a, 3-(2-{[4-({2-[(4-chlorophenyl)methyl]pyrimidin-4-yl}oxy)piperidin-1-yl]methyl}-3-{[(2S)-oxetan-2-yl]methyl}-3H-imidazo[4,5-b]pyridin-6-yl)-4,5-dihydro-1,2,4-oxadiazol-5-one]
41	Fc1cc(Cl)ccc1Cc1cccc(OC2CCN(Cc3nc4cc(-c5nnc(C(F)(F)F)[nH]5)ncc4n3C3CCOCC3)CC2)n1 [Compound 191, 2-[(4-chloro-2-fluorophenyl)methyl]-6-[(1-{[3-(oxan-4-yl)-6-[5-(trifluoromethyl)-4H-1,2,4-triazol-3-yl]-3H-imidazo[4,5-c]pyridin-2-yl]methyl}piperidin-4-yl)oxy]pyridine]
0.2	Fc1cc(Cl)ccc1Cc1cccc(OC2CCN(Cc3nc4cc(-c5nnn[nH]5)ncc4n3C[C@@H]3CCO3)CC2)n1 [Compound 176a, 2-[(4-chloro-2-fluorophenyl)methyl]-6-({1-[(3-{[(2S)-oxetan-2-yl]methyl}-6-(1H-1,2,3,4-tetrazol-5-yl)-3H-imidazo[4,5-c]pyridin-2-yl)methyl]piperidin-4-yl}oxy)pyridine]
0.24	N#Cc1ccc(Cc2cccc(OC3CCN(Cc4nc5cc(-c6nnc(C(F)(F)F)[nH]6)ncc5n4C[C@@H]4CCO4)CC3)n2)c(F)c1 [Compound 190a, 3-fluoro-4-{[6-({1-[(3-{[(2S)-oxetan-2-yl]methyl}-6-[5-(trifluoromethyl)-4H-1,2,4-triazol-3-yl]-3H-imidazo[4,5-c]pyridin-2-yl)methyl]piperidin-4-yl}oxy)pyridin-2-yl]methyl}benzonitrile]
0.053	O=C(O)c1ccc2c(c1)nc(CN1CCC(Oc3ccnc(Cc4ccc(Cl)cc4)n3)CC1)n2C[C@@H]1CCO1 [Compound 134a, 2-{[4-({2-[(4-chlorophenyl)methyl]pyrimidin-4-yl}oxy)piperidin-1-yl]methyl}-1-{[(2S)-oxetan-2-yl]methyl}-1H-1,3-benzodiazole-5-carboxylic acid]
12	O=C(O)c1ccc2c(c1)nc(CN1CCC(Oc3nc(Cc4ccc(Cl)cc4F)ncc3F)CC1)n2C[C@@H]1CCO1 [Compound 165a, 2-{[4-({2-[(4-chloro-2-fluorophenyl)methyl]-5-fluoropyrimidin-4-yl}oxy)piperidin-1-yl]methyl}-1-{[(2S)-oxetan-2-yl]methyl}-1H-1,3-benzodiazole-5-carboxylic acid]
0.32	N#CC1(Cn2c(CN3CCC(Oc4ccnc(Cc5ccc(Cl)cc5)n4)CC3)nc3cc(-c4noc(=O)[nH]4)ccc32)CC1 [Compound 155, 1-[(2-{[4-({2-[(4-chlorophenyl)methyl]pyrimidin-4-yl}oxy)piperidin-1-yl]methyl}-5-(5-oxo-4,5-dihydro-1,2,4-oxadiazol-3-yl)-1H-1,3-benzodiazol-1-yl)methyl]cyclopropane-1-carbonitrile]
0.38	Fc1cc(Cl)ccc1Cc1cccc(OC2CCN(Cc3nc4cc(-c5nnn[nH]5)ccc4n3C[C@@H]3CCO3)CC2)n1 [Compound 110a, 2-{[4-({6-[(4-chloro-2-fluorophenyl)methyl]pyridin-2-yl}oxy)piperidin-1-yl]methyl}-1-{[(2S)-oxetan-2-yl]methyl}-5-(1H-1,2,3,4-tetrazol-5-yl)-1H-1,3-benzodiazole]
0.31	O=C(Nc1ccc2c(c1)nc(CN1CCC(Oc3ccnc(Cc4ccc(Cl)cc4)n3)CC1)n2C[C@@H]1CCO1)c1cccnc1 [Compound 102a, N-(2-{[4-({2-[(4-chlorophenyl)methyl]pyrimidin-4-yl}oxy)piperidin-1-yl]methyl}-1-{[(2S)-oxetan-2-yl]methyl}-1H-1,3-benzodiazol-5-yl)pyridine-3-carboxamide]
